One compound from US20160031817A1, “3-PIPERIDONE COMPOUNDS AND THEIR USE AS NEUROKININ-1 (NK1) RECEPTOR ANTAGONISTS” (NANYANG TECHNOLOGICAL UNIVERSITY, priority 2013, published 2016) can be followed below.

On to `Oc1ccc(OC(F)(F)F)cc1C1COC2(CCCNC2c2ccccc2)C1` (racemic) [rac-3, rac-2-(6-phenyl-1-oxa-7-azaspiro[4.5]decan-3-yl)-4-(trifluoromethoxy)phenol], for which the melting point is 203 to 204 °C (dec.).

In general, melting point refers to the temperature of the solid-liquid transition.
